“Also recorded” adds a separate entry of the source. Read-outs that look alike come from different tables or passages of the source.

For data set [1], the system named is human scalp hair follicles. Put plainly: Hair pigmentation, quantitative Masson-Fontana melanin staining of cultured hair follicles. It is filed as cell-based. The following applies: for melanin content, overall comparison: summary of the examples. The method, then:
(§1) Normal human scalp skin was obtained from women undergoing routine face-lift surgery after informed consent.
(§2) Test system: Philpott model (Philpott et al., J. Cell. Mol. Life Sci., 1990, 97: 463-471)
(§3) Mircodissected anagen VI hair follicles in 3 or 4 groups (3 HFs/well) were cultured at 6 days in a 24-well plate with 500 μl Williams E medium (Biochrom) supplemented with 100 IU/ml penicillin, 10 μg/ml streptomycin (Gibco), 10 μg/ml insulin (Sigma), 10 ng/ml hydrocortisone (Sigma) and 2 mmol/1 L-glutamine (Invitrogen).
(§4) Eprotirome, TRIAC, PF-277343 (1 pM, 100 pM) or vehicle were administered once for each change of medium (i.e. every 48 h).
(§5) Anagen HFs and HFs were immediately embedded in Shandon Cryomatrix and snap frozen in liquid nitrogen. Six longitudinal sections of HFs were processed for immunohistological stainings.
For histochemical visualization of melanin, Masson-Fontana staining was performed on frozen sections. Melanin was stained as brown dots and the degree of pigmentation was assessed by quantitative Masson-Fontana as described (Ito et al., Br. J. Dermatol, 2005, 152: 623-631). This method is a very sensitive and reliable indicator of changes in melanin synthesis, as shown by standard tyrosinase expression and enzyme activity assays (Kauser et al, FASEB J. 2006, 20:882-95). Staining intensity was analyzed in a defined reference region of the HF pigmentary unit and, using the ImageJ software (National Institute of Health).

For data set [2], the system named is hair growth. Particulars: mouse; cited from earlier work.
Data set [3] has as its system human scalp hair follicles. Kind of data set: HF cycle staging in human hair follicle organ culture. It is filed as cell-based. Particulars: for hair cycle staging, macroscopic and microscopic, overall comparison: summary of the examples. On the procedure: as §1, §2, §3, §4, §5
HF cycle staging was carried out according to defined morphological criteria, and the percentage of HFs in anagen and early, mid, or late catagen was determined.

For data set [4], the system named is tyrosinase activity of hair follicles. Kind of data set: Tyrosinase activity of cultured hair follicles. It is filed as cell-based, human. The method, then:
as §1, §2, §3, §4, §5

The subject of another data set is TGFβ2. Kind of data set: TGFβ2 immunoreactivity in cultured hair follicles. It is filed as cell-based, human. The method, then: as §1, §2, §3, §4, §5
Data set [5] deals with hair matrix keratinocytes. Put plainly: Ki-67/TUNEL double staining, proliferation and apoptosis measurements. It is filed as cell-based, human. The method, then:
as §1, §3, §5
To evaluate apoptotic cells in co-localization with a proliferation marker Ki-67, a Ki-67/terminal dUTP nick-end labelling (TUNEL) double-staining method was used. […] TUNEL-positive cells were visualized by an antidigoxigenin fluorescein isothiocyanate-conjugated antibody (ApopTag kit), whereas Ki-67 was detected by a rhodamine-labelled goat antimouse antibody (Jackson ImmunoResearch, West Grove, Pa.). Negative controls were performed by omitting terminal deoxynucleotidyl transferase and the Ki-67 antibody. Counterstaining was performed with 4′,6-diamidino-2-phenylindole (DAPI) (Roche Molecular Biochemicals GmbH, Mannheim, Germany). Quantitative immunohistomorphometry was performed; Ki-67-, TUNEL-, or DAPI-positive cells were counted in a previously defined reference region of the HF matrix and epidermis, and the percentage of Ki-67/TUNEL-positive cells was determined.

The subject of data set [6] is human scalp hair follicles. Put plainly: Hair shaft elongation in human hair follicle organ culture (Philpott model). Type of data set: cell-based. On the procedure:
as §1, §3
Hair shaft length measurements of HFs were performed every second day on individual HFs using a Zeiss inverted binocular microscope with an eyepiece measuring graticule.

Data set [7] has as its system hair growth. The following applies: monkey; cited from earlier work.
A further data set concerns MTCO1. Kind of data set: MTCO1 protein expression (immunoreactivity) in cultured hair follicles. Type of data set: cell-based, human. The method, then:
as §1, §2, §3, §4, §5

A further data set has as its system SKH-1 mice. Particulars: topical; cited from earlier work.
In data set [8] the test system is outer root sheath cells, dermal papilla cells, and fibrous sheath cells of hair follicles. Particulars: all these types of cells, significantly; cited from earlier work.
In the next data set the test system is alopecia areata. Particulars: topical; cited from earlier work.
A further data set deals with CD rats. The following applies: topical; cited from earlier work.
The test system of data set [9] is human hair follicles. The following applies: cited from earlier work.
In data set [10] the test system is human hair follicles. Particulars: physiological level of free T3; cited from earlier work.
A short description of a further data set: Stability. It is filed as physicochemical.
Data set [11] can be described thus: Penetration in human skin. It is filed as in vitro ADME.
The conditions of data set [12]: cited from earlier work.
Where [13] appears, read: person two, after 6 days, macroscopically and microscopically.
Setting [14] is: occipital scalp HFs, person two, 6 days culture.
Setting [15] is: person two, 100 pM, anagen HFs and all HFs.

For `Cc1cc(-n2ncc(=O)[nH]c2=O)cc(C)c1Oc1ccc(O)c(Cc2ccc(F)cc2)c1` [PF-277343], the melanisation entry in data set [1] (person three, 1 pM and 100 pM, all HFs) was “significantly decreased”. Moreover, in data set [1] (person three, 100 pM, only anagen HFs (significant)), the melanin production result is listed as “strong reduction”. The “melanin content, overall comparison” value in data set [1] was “decrease in melanin content”. Also, the “efficacy in hair growth model” value in the data set on hair growth [2] and in the data set with hair growth [7] was “efficacious” in each case. For the same compound, the “macroscopic HF assessment (hair cycle staging)” value in data set [3] (person three, 1 pM) is recorded as “prematurely induces catagen”. Moreover, the “quantitative hair cycle histomorphometry” value in [3] (person three, 1 pM and 100 pM) is listed as “promoted premature catagen development”. Also, the “hair cycle staging, macroscopic and microscopic, overall comparison” value (“hair cycle staging … overall comparison” for short) in data set [3] is reported as “caused hair follicles to enter the catagen phase prematurely”. In addition, the tyrosinase activity entry in data set [4] (person three, 100 pM, anagen HFs and all HFs) is “slightly upregulated”. Further, the “tyrosinase activity upregulation, significance” value in [4] (person three, 100 pM, only anagen HFs) is on record as “significant”. The TGFβ2 immunoreactivity result in the data set with TGFβ2 (person three, 100 pM concentration group) is listed as “significantly reduced”. Further, the “proliferation (Ki-67) of hair matrix keratinocytes” value in data set [5] (person three) is “did not show effects”. Also, the “apoptosis (TUNEL)” value in [5] (person three, 100 pM) is given as “slightly inhibited (not significant)”. The hair shaft elongation result in data set [6] (occipital scalp HFs, person three, 1 pM) was “slight (not significant) tendency towards inhibition”. The “hair shaft elongation, overall comparison” value in data set [6] (summary of the examples) was “tendency of a slight inhibition”. Moreover, the MTCO1 protein expression entry in the data set on MTCO1 (person three) is on record as “no significant change”.
On to `N[C@@H](Cc1cc(I)c(Oc2ccc(O)c(I)c2)c(I)c1)C(=O)O` [T3, 3,5,3′-triiodo-L-thyronine], for which the “epidermal proliferation, dermal thickening, and hair growth” value with SKH-1 mice is reported as “stimulate”. Moreover, the “proliferation and/or metabolism of hair follicle cell types” value in data set [8] is “stimulated”. In the data set on alopecia areata, the efficacy versus placebo entry is on record as “not more effective than placebo” and the safety entry is given as “safe”. Besides, in the data set on CD rats, the “epidermal proliferation, dermal thickening, and hair growth” value was “stimulate”. Further, in the data set on human hair follicles [9], the anagen duration entry is “prolong”, the “apoptosis of hair matrix keratinocytes (Ki-67/TUNEL staining)” value was “inhibited”, the “hair shaft elongation in vitro” value was “did not translate to a significantly altered hair shaft elongation” and the “melanin synthesis in human hair follicles” value is on record as “stimulate”. The “human hair survival in vitro” value in the data set on human hair follicles [10] is “significantly enhanced”.
As to `N[C@@H](Cc1cc(I)c(Oc2cc(I)c(O)c(I)c2)c(I)c1)C(=O)O` [T4, 3,5,3′,5′-tetraiodo-L-thyronine], in the data set on human hair follicles [9], the anagen duration result is listed as “prolong”, the “apoptosis of hair matrix keratinocytes (Ki-67/TUNEL staining)” value is listed as “inhibited”, the “hair matrix keratinocyte proliferation (Ki-67/TUNEL staining)” value was “stimulated” and the “hair shaft elongation in vitro” value is listed as “did not translate to a significantly altered hair shaft elongation”. For the same compound, in the data set with human hair follicles [9], the “melanin synthesis in human hair follicles” value is listed as “stimulate”.
In the case of `O=C(O)Cc1cc(I)c(Oc2ccc(O)c(I)c2)c(I)c1` [TRIAC, Triiodothyroacetic Acid], the “hair follicle melanin content” value in data set [1] (person two, all HFs) is “No significant effects”. Further, the “melanin content, overall comparison” value in data set [1] is reported as “no effects”. Further, in [3] (setting [13]), the “anagen (prolongation)” value is given as “prolonged anagen” and the catagen development entry is reported as “inhibited catagen development”. Further, the “hair cycle staging … overall comparison” value in data set [3] was “able to prolong anagen and to inhibit catagen development”. Also, in the data set “Stability”, the stability entry is “low stability”. Moreover, the “penetration in human skin” value in data set [11] is “inferior penetration”. For the same compound, the tyrosinase activity result in data set [4] (person two, all HFs) is recorded as “downregulated”. Further, the “tyrosinase activity downregulation, significance” value in [4] (person two, all HFs, 0.1 pM and 1 pM groups) is listed as “significant”. The “TGFβ2 immunoreactivity reduction, significance” value with TGFβ2 (person two, 1 pM and 100 pM concentration groups) is recorded as “significant effect”. Further, the TGFβ2 immunoreactivity result with TGFβ2 (person two, all concentrations) is listed as “reduced”. Further, in data set [5] (person two), the “apoptosis (TUNEL)” value is “inhibited (not significant)” and the “proliferation (Ki-67) of hair matrix keratinocytes” value was “slightly upregulated (not significant)”. Moreover, the “hair shaft elongation (inhibition), significance” value in [6] (occipital scalp HFs, person two, 1 pM) was “significant effect”. Besides, in data set [6] (setting [14]), the hair shaft elongation result is “slight inhibition”. Further, the MTCO1 protein expression entry with MTCO1 (person two) is given as “no significant change”.
Regarding `CC(C)c1cc(Oc2c(Br)cc(NC(=O)CC(=O)O)cc2Br)ccc1O` [eprotirome, 3-[[3,5-dibromo-4-[4-hydroxy-3-(1-methylethyl)phenoxy]phenyl]amino]-3-oxo-propanoic acid], in [12] (clinical trial in humans), the “effects on the heart” value was “did not provoke detectable effects”; the safety and tolerability entry is “safe and well tolerated”. Moreover, the “lowering of total and LDL cholesterol levels” value in [12] (moderately overweight and hypercholesterolemic subjects) was “up to 40%”. Also, the melanin content result in data set [1] (person one, 100 pM, anagen HFs and all HFs) is given as “slightly increased”. In data set [1] (person one, 100 pM, only anagen HFs), the “melanin content increase, significance” value is “significant”. Further, the melanisation entry in data set [1] (setting [15]) was “slightly increased”. Besides, the “melanin content, overall comparison” value in data set [1] was “increased melanin content”. In [3] (person one), the “duration of anagen, macroscopically” value is given as “no major effect” and the hair cycle histomorphometry result was “clear anagen-prolonging effect”. Further, in data set [3] (setting [13]), the “number of anagen HFs” value is “significantly increased” and the “number of catagen HFs” value is “decreased”. Moreover, the “hair cycle staging … overall comparison” value in data set [3] is “able to prolong anagen and to inhibit catagen development; also recorded: clearly prolongs anagen”. For the same compound, in data set [4] (person one, 100 pM group), the tyrosinase activity entry is recorded as “upregulated”. The “tyrosinase activity upregulation, significance” value in data set [4] (person one, 100 pM, all HFs) was “significant”. Moreover, the tyrosinase activity result in [4] (setting [15]) is “slightly upregulated”. The “tyrosinase activity, overall” value in [4] (summary of the examples) is reported as “upregulation”. In the data set on TGFβ2 (person one), the TGFβ2 immunoreactivity entry is given as “significantly reduced”. In addition, the “TGFβ2 immunoreactivity reduction, concentration dependence” value with TGFβ2 (person one, 100 pM) is recorded as “strongest effect”. Also, the TGFβ2 immunoreactivity entry in the data set with TGFβ2 (person two, 1 pM concentration group) was “significantly reduced”. Besides, the “expression of TGFβ2, overall” value with TGFβ2 (summary of the examples) is reported as “significant reduced expression”. For the same compound, the “proliferation of the hair matrix keratinocytes (Ki-67)” value in [5] (person one, 100 pM) is recorded as “increased proliferation”. In data set [5] (person two), the “apoptosis (TUNEL)” value is recorded as “no change” and the “proliferation (Ki-67) of hair matrix keratinocytes” value is given as “tendentially upregulated”. For the same compound, the “proliferation of hair matrix keratinocytes, overall” value in [5] (summary of the examples) is “increased proliferation”. The hair shaft elongation entry in [6] (occipital scalp HFs, person one, both doses (1 pM, 100 pM)) is listed as “slightly stimulated”. Besides, in data set [6] (setting [14]), the hair shaft elongation result is on record as “did not significantly affect”. In the data set on MTCO1 (person one), the MTCO1 immunoreactivity result is reported as “significantly up-regulates”. Further, the MTCO1 protein expression entry with MTCO1 (person two) is “no significant change”.

These data come from patent US20150182482A1, “EPROTIROME FOR USE IN THE PREVENTION AND/OR TREATMENT OF HAIR DISORDERS AND COMPOSITIONS THEREOF” (DR. AUGUST WOLFF GMBH & CO. KG ARZNEIMITTEL, priority 2012, published 2015).
